Laboratory results: the supplement of paper PMC13386468
pIC50: −log10 of the molar value.

Tests used:
Test in all cases: IC50 for competition of protein binding to Kinobeads
Conditions in all cases: assay detail: Kinobeads competition in P. falciparum blood-stage lysate
A0A143ZZT8 = molecular target: A0A143ZZT8
UniProt C0H4S8 = molecular target: UniProt C0H4S8
UniProt C6KTE1 = molecular target: UniProt C6KTE1
UniProt O77381 = molecular target: UniProt O77381
UniProt O96236 = molecular target: UniProt O96236
UniProt O97249 = molecular target: UniProt O97249
UniProt O97256 = molecular target: UniProt O97256
UniProt Q7KQL5 = molecular target: UniProt Q7KQL5
UniProt Q8I206 = molecular target: UniProt Q8I206
UniProt Q8I266 = molecular target: UniProt Q8I266
UniProt Q8I272 = molecular target: UniProt Q8I272
UniProt Q8I320 = molecular target: UniProt Q8I320
UniProt Q8I367 = molecular target: UniProt Q8I367
UniProt Q8I3T8 = molecular target: UniProt Q8I3T8
UniProt Q8I3W0 = molecular target: UniProt Q8I3W0
UniProt Q8I492 = molecular target: UniProt Q8I492
UniProt Q8I4Q5 = molecular target: UniProt Q8I4Q5
UniProt Q8I510 = molecular target: UniProt Q8I510
UniProt Q8I512 = molecular target: UniProt Q8I512
UniProt Q8I535 = molecular target: UniProt Q8I535
UniProt Q8I586 = molecular target: UniProt Q8I586
UniProt Q8I5A9 = molecular target: UniProt Q8I5A9
UniProt Q8I5X8 = molecular target: UniProt Q8I5X8
UniProt Q8I719 = molecular target: UniProt Q8I719
UniProt Q8IAV1 = molecular target: UniProt Q8IAV1
UniProt Q8IBK8 = molecular target: UniProt Q8IBK8
UniProt Q8IBP8 = molecular target: UniProt Q8IBP8
UniProt Q8IDD9 = molecular target: UniProt Q8IDD9
UniProt Q8IDX8 = molecular target: UniProt Q8IDX8
UniProt Q8IE18 = molecular target: UniProt Q8IE18
UniProt Q8IE84 = molecular target: UniProt Q8IE84
UniProt Q8IE99 = molecular target: UniProt Q8IE99
UniProt Q8IEE5 = molecular target: UniProt Q8IEE5
UniProt Q8IEH3 = molecular target: UniProt Q8IEH3
UniProt Q8IHN4 = molecular target: UniProt Q8IHN4
UniProt Q8II13 = molecular target: UniProt Q8II13
UniProt Q8IID5 = molecular target: UniProt Q8IID5
UniProt Q8III3 = molecular target: UniProt Q8III3
UniProt Q8III6 = molecular target: UniProt Q8III6
UniProt Q8IJG6 = molecular target: UniProt Q8IJG6
UniProt Q8IKB0 = molecular target: UniProt Q8IKB0
UniProt Q8IKU0 = molecular target: UniProt Q8IKU0
UniProt Q8IKU1 = molecular target: UniProt Q8IKU1
UniProt Q8IKV8 = molecular target: UniProt Q8IKV8
UniProt Q8IL19 = molecular target: UniProt Q8IL19
UniProt Q8IL22 = molecular target: UniProt Q8IL22
UniProt Q8IL48 = molecular target: UniProt Q8IL48
UniProt Q8IL88 = molecular target: UniProt Q8IL88
UniProt Q8ILI6 = molecular target: UniProt Q8ILI6
UniProt Q8ILQ3 = molecular target: UniProt Q8ILQ3
UniProt Q8IM55 = molecular target: UniProt Q8IM55
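Further: native unpurified kinases from lysate captured on beads bearing immobilized kinase inhibitors, with bead-bound kinases quantified by mass spectrometry across compound doses.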

UniProt Q8I266, sequence (Q8I266 whole entry): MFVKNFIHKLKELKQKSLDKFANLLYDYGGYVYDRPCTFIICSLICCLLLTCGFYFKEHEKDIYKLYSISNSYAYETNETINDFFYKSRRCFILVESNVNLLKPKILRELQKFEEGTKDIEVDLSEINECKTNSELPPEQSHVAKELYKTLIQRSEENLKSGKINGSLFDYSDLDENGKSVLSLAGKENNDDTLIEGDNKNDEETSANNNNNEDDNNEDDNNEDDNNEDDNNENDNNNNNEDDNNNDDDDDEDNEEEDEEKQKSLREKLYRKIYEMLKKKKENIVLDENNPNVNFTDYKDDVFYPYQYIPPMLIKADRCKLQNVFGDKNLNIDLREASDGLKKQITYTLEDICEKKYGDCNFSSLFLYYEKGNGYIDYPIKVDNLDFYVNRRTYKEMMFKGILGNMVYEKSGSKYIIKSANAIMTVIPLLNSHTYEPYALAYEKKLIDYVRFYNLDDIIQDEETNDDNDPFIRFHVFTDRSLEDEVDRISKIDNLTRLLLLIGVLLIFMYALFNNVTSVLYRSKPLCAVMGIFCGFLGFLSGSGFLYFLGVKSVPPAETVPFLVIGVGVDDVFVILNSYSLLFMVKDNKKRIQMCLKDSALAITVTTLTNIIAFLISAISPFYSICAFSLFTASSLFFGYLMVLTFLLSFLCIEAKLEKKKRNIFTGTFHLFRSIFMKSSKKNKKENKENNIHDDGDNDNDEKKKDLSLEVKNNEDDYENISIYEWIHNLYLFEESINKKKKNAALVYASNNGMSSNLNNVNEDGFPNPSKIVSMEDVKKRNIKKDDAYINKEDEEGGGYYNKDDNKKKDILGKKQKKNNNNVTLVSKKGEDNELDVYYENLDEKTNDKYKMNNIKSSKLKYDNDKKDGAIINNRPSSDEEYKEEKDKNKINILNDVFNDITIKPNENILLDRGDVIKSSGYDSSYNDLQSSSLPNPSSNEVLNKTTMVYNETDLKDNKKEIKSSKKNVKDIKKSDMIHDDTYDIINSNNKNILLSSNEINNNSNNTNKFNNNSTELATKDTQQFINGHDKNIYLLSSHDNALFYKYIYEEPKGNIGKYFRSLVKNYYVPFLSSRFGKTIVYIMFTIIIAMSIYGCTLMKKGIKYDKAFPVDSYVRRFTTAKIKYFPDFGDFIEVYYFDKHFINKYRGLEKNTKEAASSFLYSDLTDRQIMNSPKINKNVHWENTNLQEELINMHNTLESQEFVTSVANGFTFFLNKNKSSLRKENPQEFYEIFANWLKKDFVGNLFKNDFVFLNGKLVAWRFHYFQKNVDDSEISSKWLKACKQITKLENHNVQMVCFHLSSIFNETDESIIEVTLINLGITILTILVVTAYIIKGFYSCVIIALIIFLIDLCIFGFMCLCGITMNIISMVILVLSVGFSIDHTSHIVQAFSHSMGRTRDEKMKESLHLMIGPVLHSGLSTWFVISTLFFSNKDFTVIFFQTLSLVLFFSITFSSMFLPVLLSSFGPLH
UniProt Q8I719, sequence (Q8I719 whole entry, looked up): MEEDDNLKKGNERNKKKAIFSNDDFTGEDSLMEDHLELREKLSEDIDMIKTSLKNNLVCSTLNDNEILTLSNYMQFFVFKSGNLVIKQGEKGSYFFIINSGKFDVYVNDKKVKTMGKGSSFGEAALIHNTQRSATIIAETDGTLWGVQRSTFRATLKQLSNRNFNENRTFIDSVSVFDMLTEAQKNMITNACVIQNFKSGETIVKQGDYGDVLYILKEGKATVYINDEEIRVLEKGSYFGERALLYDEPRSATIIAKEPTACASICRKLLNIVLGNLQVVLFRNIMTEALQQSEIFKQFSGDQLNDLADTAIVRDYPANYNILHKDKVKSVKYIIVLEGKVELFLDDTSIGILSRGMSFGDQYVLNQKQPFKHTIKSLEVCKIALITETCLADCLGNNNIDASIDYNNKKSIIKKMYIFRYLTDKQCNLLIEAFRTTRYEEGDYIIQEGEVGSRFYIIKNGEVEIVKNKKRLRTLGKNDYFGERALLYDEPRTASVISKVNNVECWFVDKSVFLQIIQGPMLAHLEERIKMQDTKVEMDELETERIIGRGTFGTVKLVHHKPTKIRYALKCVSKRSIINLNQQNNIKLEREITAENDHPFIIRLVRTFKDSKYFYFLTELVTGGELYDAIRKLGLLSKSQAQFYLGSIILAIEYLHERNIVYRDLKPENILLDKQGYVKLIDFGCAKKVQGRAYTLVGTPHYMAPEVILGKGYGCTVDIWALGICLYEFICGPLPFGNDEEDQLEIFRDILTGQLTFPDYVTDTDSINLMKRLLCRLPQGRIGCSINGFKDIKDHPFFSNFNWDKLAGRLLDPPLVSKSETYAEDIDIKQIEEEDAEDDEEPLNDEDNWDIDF
UniProt Q7KQL5, sequence (Q7KQL5 whole entry): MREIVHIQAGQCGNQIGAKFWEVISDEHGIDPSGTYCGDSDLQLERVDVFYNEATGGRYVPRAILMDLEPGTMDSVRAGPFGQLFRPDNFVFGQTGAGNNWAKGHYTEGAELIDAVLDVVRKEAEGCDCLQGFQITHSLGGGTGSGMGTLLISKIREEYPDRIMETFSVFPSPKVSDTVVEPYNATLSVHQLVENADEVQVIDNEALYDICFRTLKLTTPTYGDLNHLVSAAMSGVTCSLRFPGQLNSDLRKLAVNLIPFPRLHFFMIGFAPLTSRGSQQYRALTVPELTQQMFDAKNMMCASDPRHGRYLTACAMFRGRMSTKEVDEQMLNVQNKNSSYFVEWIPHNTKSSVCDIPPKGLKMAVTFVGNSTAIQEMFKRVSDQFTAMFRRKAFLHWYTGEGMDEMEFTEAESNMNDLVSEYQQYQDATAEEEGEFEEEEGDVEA
UniProt Q8ILI6, sequence (Q8ILI6 whole entry): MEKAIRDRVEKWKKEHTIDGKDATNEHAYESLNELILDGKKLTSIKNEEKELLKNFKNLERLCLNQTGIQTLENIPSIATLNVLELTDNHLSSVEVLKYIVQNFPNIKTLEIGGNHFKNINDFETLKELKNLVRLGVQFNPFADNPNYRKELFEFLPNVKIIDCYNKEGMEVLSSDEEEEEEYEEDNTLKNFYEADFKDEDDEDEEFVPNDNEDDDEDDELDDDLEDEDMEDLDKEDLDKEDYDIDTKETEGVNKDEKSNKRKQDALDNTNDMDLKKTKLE
UniProt O97249, sequence (O97249 whole entry): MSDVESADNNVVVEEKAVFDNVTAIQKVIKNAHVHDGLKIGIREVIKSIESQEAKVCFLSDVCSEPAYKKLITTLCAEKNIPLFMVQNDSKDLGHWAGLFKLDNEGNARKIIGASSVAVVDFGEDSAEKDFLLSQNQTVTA
UniProt Q8IKU0, sequence (Q8IKU0 whole entry): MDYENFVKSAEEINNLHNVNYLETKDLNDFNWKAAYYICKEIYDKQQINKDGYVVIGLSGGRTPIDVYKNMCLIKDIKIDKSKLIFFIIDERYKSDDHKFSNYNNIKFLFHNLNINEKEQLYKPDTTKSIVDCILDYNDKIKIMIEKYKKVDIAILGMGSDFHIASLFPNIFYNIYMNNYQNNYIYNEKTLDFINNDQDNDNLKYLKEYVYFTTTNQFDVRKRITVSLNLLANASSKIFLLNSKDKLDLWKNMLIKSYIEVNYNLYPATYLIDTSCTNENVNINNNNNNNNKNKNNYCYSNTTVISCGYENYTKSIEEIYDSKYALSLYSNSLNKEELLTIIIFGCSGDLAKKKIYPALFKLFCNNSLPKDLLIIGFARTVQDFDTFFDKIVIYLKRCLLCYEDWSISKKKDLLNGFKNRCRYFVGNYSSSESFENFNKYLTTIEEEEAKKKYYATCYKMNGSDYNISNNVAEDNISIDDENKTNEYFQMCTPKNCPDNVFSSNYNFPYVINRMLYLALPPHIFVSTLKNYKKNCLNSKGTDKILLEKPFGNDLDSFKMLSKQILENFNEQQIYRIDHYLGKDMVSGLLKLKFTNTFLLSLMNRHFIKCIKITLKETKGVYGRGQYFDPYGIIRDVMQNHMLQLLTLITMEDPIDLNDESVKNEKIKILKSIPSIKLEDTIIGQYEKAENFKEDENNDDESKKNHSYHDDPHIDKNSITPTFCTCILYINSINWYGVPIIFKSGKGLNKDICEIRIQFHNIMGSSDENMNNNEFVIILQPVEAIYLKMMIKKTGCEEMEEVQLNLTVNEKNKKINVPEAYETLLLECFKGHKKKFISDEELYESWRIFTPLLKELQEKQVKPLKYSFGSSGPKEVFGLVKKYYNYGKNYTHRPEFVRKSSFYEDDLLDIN

Question: `O=c1[nH]c2ccc(Cl)cc2c(NC2CN3CCC2CC3)c1-c1nc2ccccc2[nH]1` (stereo unspecified) [CHIR-124] was tested. Which pIC50 (A0A143ZZT8) did it give?
Answer: < 4.70

Question: And the pIC50 (UniProt C0H4S8)?
Answer: < 4.70

Question: What about the pIC50 (UniProt C6KTE1) of the same compound?
Answer: < 4.70

Question: What about the pIC50 (UniProt O77381) of the same compound?
Answer: < 4.70

Question: And the pIC50 (UniProt O96236)?
Answer: < 4.70

Question: And the pIC50 (UniProt O97249)?
Answer: < 4.70

Question: What about the pIC50 (UniProt O97256) of the same compound?
Answer: < 4.70

Question: What about the pIC50 (UniProt Q7KQL5) of the same compound?
Answer: < 4.70

Question: What about the pIC50 (UniProt Q8I206) of the same compound?
Answer: < 4.70

Question: What about the pIC50 (UniProt Q8I266) of the same compound?
Answer: < 4.70

Question: And the pIC50 (UniProt Q8I272)?
Answer: < 4.70

Question: And the pIC50 (UniProt Q8I320)?
Answer: < 4.70

Question: What about the pIC50 (UniProt Q8I367) of the same compound?
Answer: < 4.70

Question: What about the pIC50 (UniProt Q8I3T8) of the same compound?
Answer: < 4.70

Question: What about the pIC50 (UniProt Q8I3W0) of the same compound?
Answer: < 4.70

Question: What about the pIC50 (UniProt Q8I492) of the same compound?
Answer: < 4.70

Question: And the pIC50 (UniProt Q8I4Q5)?
Answer: < 4.70

Question: What about the pIC50 (UniProt Q8I510) of the same compound?
Answer: < 4.70

Question: What about the pIC50 (UniProt Q8I512) of the same compound?
Answer: < 4.70

Question: And the pIC50 (UniProt Q8I535)?
Answer: > 7.08

Question: And the pIC50 (UniProt Q8I586)?
Answer: < 4.70

Question: What about the pIC50 (UniProt Q8I5A9) of the same compound?
Answer: < 4.70

Question: What about the pIC50 (UniProt Q8I5X8) of the same compound?
Answer: < 4.70

Question: What about the pIC50 (UniProt Q8I719) of the same compound?
Answer: < 4.70

Question: What about the pIC50 (UniProt Q8IAV1) of the same compound?
Answer: < 4.70

Question: What about the pIC50 (UniProt Q8IBK8) of the same compound?
Answer: < 4.70

Question: What about the pIC50 (UniProt Q8IBP8) of the same compound?
Answer: < 4.70

Question: And the pIC50 (UniProt Q8IDD9)?
Answer: < 4.70

Question: What about the pIC50 (UniProt Q8IDX8) of the same compound?
Answer: < 4.70

Question: And the pIC50 (UniProt Q8IE18)?
Answer: < 4.70

Question: And the pIC50 (UniProt Q8IE84)?
Answer: < 4.70

Question: What about the pIC50 (UniProt Q8IE99) of the same compound?
Answer: < 4.70

Question: And the pIC50 (UniProt Q8IEE5)?
Answer: < 4.70

Question: What about the pIC50 (UniProt Q8IEH3) of the same compound?
Answer: < 4.70

Question: And the pIC50 (UniProt Q8IHN4)?
Answer: < 4.70

Question: And the pIC50 (UniProt Q8II13)?
Answer: < 4.70

Question: And the pIC50 (UniProt Q8IID5)?
Answer: < 4.70

Question: What about the pIC50 (UniProt Q8III3) of the same compound?
Answer: < 4.70

Question: What about the pIC50 (UniProt Q8III6) of the same compound?
Answer: < 4.70

Question: And the pIC50 (UniProt Q8IJG6)?
Answer: < 4.70

Question: What about the pIC50 (UniProt Q8IKB0) of the same compound?
Answer: < 4.70

Question: And the pIC50 (UniProt Q8IKU0)?
Answer: < 4.70

Question: And the pIC50 (UniProt Q8IKU1)?
Answer: < 4.70

Question: And the pIC50 (UniProt Q8IKV8)?
Answer: < 4.70

Question: What about the pIC50 (UniProt Q8IL19) of the same compound?
Answer: < 4.70

Question: What about the pIC50 (UniProt Q8IL22) of the same compound?
Answer: < 4.70

Question: What about the pIC50 (UniProt Q8IL48) of the same compound?
Answer: < 4.70

Question: And the pIC50 (UniProt Q8IL88)?
Answer: < 4.70

Question: And the pIC50 (UniProt Q8ILI6)?
Answer: < 4.70

Question: And the pIC50 (UniProt Q8ILQ3)?
Answer: < 4.70

Question: What about the pIC50 (UniProt Q8IM55) of the same compound?
Answer: < 4.70
